The source of these data is patent US20070031398A1, “One of several enzyme-containing compounds, dietetic food products and drugs produced from and the use therefor for medical purpose” (MUCOS PHARMA GmbH & Co., priority 2003, published 2007).

For the assay, the system named is prostate carcinomas. Description: concomitant therapy during treatment of carcinomas. In kind it is in vivo. Conditions: prophylactic and therapeutic effects. An excerpt: This applies both to the period before, during and at defined intervals after the tumor-destructive therapy, e.g. an operation, chemotherapy and/or radiotherapy. The reduced intake of micronutrients (e.g. vitamins, trace elements) which is caused by nausea, reduced food intake, vomiting, diarrhea and sweating is compensated. This improves the patient's tolerance of the treatment, increases the response to the therapy and improves the patient's quality of life. […] Overall, the efficacy of the tumor-destructive therapy is improved.

As to `CC(C)=CCC/C(C)=C/C=C/C(C)=C/C=C/C(C)=C/C=C/C=C(C)/C=C/C=C(C)/C=C/C=C(\C)CCC=C(C)C` [lycopene], the “incidence and aggressiveness of prostate carcinomas” value was “reduction in the incidence and aggressiveness”.
